Here are results for 2 molecules from patent US20040253251A1 (priority 2003, published 2004).

Series [1] has as its system human ovarian cancer cells transplanted into mice. Kind of series: Tumor growth in mouse model of human ovarian cancer (orthotopic transplant), Example 6. Type of series: in vivo. The following applies: 31st day from tumor inoculation; 30 consecutive days; AY/NY 0.3 ml oral once per day, TSPA 1.5 mg/kg/day i.v. An excerpt:
Numerous animal studies have reported the use of orthotopic transplant technique in female mouse models to study the treating of ovarian cancer. See, for example, Animals for Experiments and Experimental Techniques, Chinese Medical Publisher, 1997. The use of orthotopic transplant technique has been highly successful in the development of mouse models of human ovarian cancer.
The human ovarian cancer sample is carefully selected before, during, and after surgery in order to ensure transplant occurred at the equivalent position in the mouse. The ovarian cancer sample is obtained from patients who have not received any radiation, chemotherapy, or immune enhancement treatment.
The mouse were starved for 24 hours before the surgery. The animals were generally anaesthetized. The barbiturates was first diluted in saline and then injected at 0.3 to 0.4 ml per animal, or 30 mg per kg body weight, into the abdomen of the mice. Under sterile conditions, a 1 cm long opening in the body cavity was cut along the right rib of the mice for engraftment of the tumor. About 10^6 units of tumor cells (about 2 mg tumor pieces per ml culture medium) were transplanted. Afterwards, the opening was sutured and the mice were put back into the cage. The animals were allowed to grow for three to five weeks or when the tumor grows to about 1 to 2 cm^3 in size. […]

For series [2] the test system is unchanged. Kind of series: Survival over 6 months in mouse model of human ovarian cancer, Example 7. Type of series: in vivo. The following applies: for Number of live animals remaining in the groups after 30 days of treatment: 30 mice per group. On the procedure: In group 2TSPA, the mice were injected intravenously with 1.5 mg of thiotepa (TSPA) per kg body weight per day.

Series [3] relates to ovarian tumor cells injected subcutaneously. Conditions: 31st day from tumor inoculation; 30 consecutive days; AY/NY 0.3 ml oral once per day, CTX 30 mg/kg/day s.c. On the procedure: (§1) The biological composition comprising 10^8 cells per ml of activated and conditioned yeast cells of the strain Saccharomyces cerevisiae Hansen strain AS2.502 was prepared by the methods described in Section 5.1 and subsections therein
The mice injected with tumor cells were kept for 5 days and then were divided into 4 experimental groups of ten mice per group and one control group. The four experimental groups were triplicated (i.e., using a total of 120 mice in the experimental groups).
The mice received the biological compositions, untreated yeast cells, CTX or saline on the same day as the tumor cells were transplanted. The mice in group CK2 also started receiving saline on the same day as the other four groups. The biological compositions, untreated yeast cells and saline were administered orally by a feeding tube and the CTX by subcutaneous injection for 30 consecutive days. […] The weight of the mice and the weight of the tumor were determined by standard techniques.

The test system is the same in series [4]. The following applies: for Number of live animals remaining in the groups after 30 days of treatment: 30 mice per group. On the procedure: The survival time of mice after tumor injection and treatment was studied.
as §1
The animals were prepared in a similar manner as described in Section 8.1.
The mice injected with tumor cells were kept for 5 days and then were divided into 4 experimental groups of ten mice per group and one control group. The four experimental groups were triplicated (i.e., using a total of 120 mice in the experimental groups). In group 2AY, the mice received 0.3 ml of the biological composition once per day. In group 2NY, the mice received 0.3 ml of the untreated yeast cells once per day. In group 2CTX, the mice were injected subcutaneously with […] of cyclophosphamide (CTX) per kg body weight per day. In group 2CK1, the mice received 0.3 ml of physiological saline once per day.
The mice received the biological compositions, untreated yeast cells, CTX or saline on the same day as the tumor cells were transplanted. Mice in group 2CK2 also started receiving saline on the same day as the other four groups. The biological compositions, untreated yeast cells and saline were administered orally by a feeding tube and the CTX by subcutaneous injection for 30 consecutive days. The mice were observed over 6 months from the day of tumor inoculation and survival was recorded. The weight of the mice and the weight of the tumor were determined by standard techniques.

[5] abbreviates: 2 months after cessation of treatment.
[6] abbreviates: 3 months after cessation of treatment.
Where [7] appears, read: 4 months after cessation of treatment.
[8] abbreviates: 5 months after cessation of treatment.
[9] abbreviates: 6 months after cessation of treatment.
Where [10] appears, read: mice that survived the 6 months observation.

Read-outs that look alike come from different tables or passages of the source.

In the case of `S=P(N1CC1)(N1CC1)N1CC1` [TSPA, thiotepa], the “mean weight of mice and standard deviation” value in series [1] is given as 21 ± 2.1 g; in series [2] (setting [10]), “all animals dead”. For the same molecule, the “mean weight of tumor nodules and standard deviation” value in series [1] is 3.1 ± 0.8 mg; in series [2] (setting [10]) it was “all animals dead”. Moreover, the “Number of live animals remaining in the groups after 30 days of treatment” value (“Number of live animals remaining” below) is on record as 30 in series [2] (0 month after cessation of treatment, 2AY/2NY 0.3 ml oral per day, 2TSPA 1.5 mg/kg/day i.v.); 24 in series [2] (1 month after cessation of treatment); 7 in series [2] (setting [5]); 2 in series [2] (setting [6]); 0 in series [2] (setting [7]); 0 in series [2] (setting [8]). Also, the “Number of live animals remaining” value in series [2] (setting [9]) is 0. In addition, in series [2] (in words, 6 months observation, 2NY 0.3 ml per day, 2TSPA 1.5 of thiotepa per kg per day), the “survival outcome during the experiment” value was “all died”.
As to `O=P1(N(CCCl)CCCl)NCCCO1` (centres unmarked) [CTX, cyclophosphamide], the “mean weight of mice and standard deviation” value is 20 ± 2.3 g in series [3] and “all animals dead” in series [4] (setting [10]). Moreover, the “mean weight of tumor nodules and standard deviation” value was 3.3 ± 1.4 g in series [3] and “all animals dead” in series [4] (setting [10]). Further, the “Number of live animals remaining” value was determined as 30 in series [4] (1 month after cessation of treatment, 2AY/2NY 0.3 ml oral per day, 2CTX 305 mg/kg/day s.c. (30 mg)); 30 in series [4] (setting [5]); 23 in series [4] (setting [6]); 14 in series [4] (setting [7]); 9 in series [4] (setting [8]); 0 in series [4] (setting [9]). Besides, in series [4] (in words, 6 months observation, 2NY 0.3 ml per day, 2CTX 30 mg/kg per day), the “survival outcome during the experiment” value is “all died”.
